# In patent publication US20130303539A1, “COMPOUNDS WITH TRPV4 ACTIVITY, COMPOSITIONS AND ASSOCIATED METHODS THEREOF” (priority 2012, published 2013):
# Key:
# [1] = test system: MB model of glaucoma; assay: IOP time course after a single eye drop in the MB model of glaucoma; type: in vivo, mouse; details: single dose eye drop
# Procedure: Specifically, microbeads (MBs) were injected into the anterior chamber of a mouse eye as described in Example 2 with PBS-injected eyes used as controls. Compound 1 (10 mg/kg body weight) (or PBS vehicle) was injected intraperitoneally (IP). […] IOP was measured in mice between 10:00 AM and 1:00 PM with the TonoLab rebound tonometer (Colonial Medical Supply, Franconia, NH/Tyolat, Helsinki, Finland). Mice were sedated with IP injection of Avertin with final amount calculated by weight (e.g., 0.5 ml for 21-24 g animals). Animals were placed on a jack stand platform and the tonolab was clamped on a ring stand and centered onto the mid-cornea. During measurements animal were neither restrained nor touched. Each eye was measured twenty consecutive times, the highest and lowest values were discarded and the values were averaged.
# FIG. 9 illustrates the short-term effects of a single dose of Compound 1 (eye drop) in the MB model of glaucoma. IOP was measured as described in Example 3 at the indicated time points after receiving a drop of Compound 1. Compound 1 reduced IOP beginning at 1 hour after dosing and continued through 6 hours after dosing.
# FIG. 10 illustrates a time course of Compounds 1, 2, 5 and Compound 2-HCl as well as a positive control compound, timolol, with regard to inhibition of IOP. The experiment was conducted as described in Example 9. Each of the TRPV4 antagonists reduced IOP with a similar time course. Specifically, Compounds 1, 2, 5 and Compound 2-HCl reduced IOP for at least 6 hours after dosing.
# FIG. 11 illustrates a time course of Compound 2-HCl activity. The experiment was conducted as described in Example 9. […] 2
# FIG. 12 illustrates a comparison of the time course of Compound 2-HCl and Compound 5. The experiment was conducted as described in Example 9.
# [2] = test system: retinal ganglion cell; assay: Pressure-induced inward currents, High-Speed Pressure Clamp, voltage-clamped retinal ganglion cell; type: cell-based; details: pressure steps from 10 mm Hg to 50 mm Hg
# Procedure: The cell was voltage clamped and stimulated with the High-Speed Pressure Clamp method, as detailed by Besch et al (Pflugers Arch. 2002 October; 445(1):161-6). This method consists of a specialized headstage coupled to a piezo element in the pressure/vacuum control valve. By balancing the access of pressure to the patch pipette, the device generates rapid and reproducible pressure steps of >±200 mm Hg. Channel activity is recorded in the cell-attached mode or the membrane is “zapped” into the outside-out configuration.
# [3] = test system: retinal ganglion cells; assay: Hypotonic swelling-induced calcium influx in retinal ganglion cells (Fura-2); type: cell-based
# Source text: Cells were labeled with fluorescent calcium indicator dye Fura-2 and exposed to hypotonic solutions in which extracellular sodium was replaced by the osmotically inert substance mannitol, as described in […] et al. (J. Neurosci. 2011 May 11; 31(19):7089-101; PMID 21562271).
# [4] = test system: retinal neurons (RGCs) and glia (Müller cells); assay: Hypotonic stimuli: cell swelling (change in cell area) and [Ca++]i; type: cell-based
# Source text: FIG. 18A illustrates the effect of hypotonic stimuli on cell swelling as measured by change in cell area. Hypotonic stimuli were generated by replacing extracellular sodium levels to lower osmolarity from 300 mOsm to 190 mOsm.
# [5] = test system: Müller cells; assay: Arachidonic acid-induced [Ca2+]i in Müller cells; type: cell-based; details: 1 μM, against 10 μM arachidonic acid
# Procedure: This response is blocked by Compound 1 (1 μM).
# [6] = test system: retinal ganglion cells; assay: In vivo intraocular injection of TRPV4 agonist GSK, NeuN+ RGC count; details: intraocular GSK, 48 hours
# Procedure: In this experiment, GSK (100-300 nM) was injected intraocularly with a Hamilton syringe. Retinas were isolated after 48 hours, fixed and labeled with the RGC marker antibody NeuN. NeuN-immunopositive somata in the ganglion cell layer, shown in the panel on the right, were counted. The bar graph represents quantification of NeuN^+ cells in the indicated experimental groups.
# [7] = test system: retinal ganglion cells; assay: TUNEL assay of apoptotic cell death in retina; type: cell-based; details: Compound 1 1 uM, RuR 10 μM
# Procedure: Terminal deoxynucleotidyl transferase-mediated dUTP-biotin nick end labeling (TUNEL) is a common method for detecting fragmentation that results from apoptotic signaling cascades. Retinas were embedded, cryosectioned, and processed for the TUNEL assay following the protocol by Gavrieli et al. (1992). After 30 min. rehydration in 70% ethanol, 2×5 min. rinses in PBS and 1% Triton-X in 1% citrate buffer (pH 7.3), the slides were subjected to a final rinse in PBS. Slides were then incubated for 30 min. in the reaction buffer (30 mM Trizma-HCl, 140 mM Na^+ cacodylate, 1.0 mM CaCl2, 0.2% Triton X-100, pH 7.2). Positive controls were treated with DNAse I (Roche Diagnostics; Branford, Conn.; 10 U/ml) in the reaction buffer. Next, slides were treated for 1 hour with 0.03 units/pi terminal transferase and 4 μM biotin-16-dUTP (Roche Diagnostics). The reaction was terminated in 30 mM Na+ citrate, 300 mM NaCl and 0.2% Triton X-100 in PBS (5 min.) and rinsed in PBS (2×5 min), exposed to 1% bovine serum albumin in PBS for 20 min and rinsed. Apoptotic cells were visualized with a confocal microscope (Zeiss LSM510) and categorized by size. […] This was blocked by RuR and by the TRPV4 antagonist Compound 1.
# [8] = molecular target: T1, TRPV4 (Mus musculus, UniProt Q9EPK8); assay: TRPV4 agonist GSK-evoked [Ca++]i in retinal Müller glial cells; type: cell-based; set-up: endogenous in cells; host or cells: retinal Müller glial cells
# [9] = molecular target: T1, TRPV4; assay: Block of TRPV4 agonist-induced calcium responses in retinal ganglion cells; type: cell-based; set-up: endogenous in cells; host or cells: retinal Müller glial cells
# Procedure: Calcium responses in retinal ganglion cells were elicited by 25 nM agonist GSK in the presence of varying concentrations of Compound 1. The half-maximal dose of inhibition was ˜300 nM.
# [10] = molecular target: T1, TRPV4; assay: AGB cation influx into retinal cells (anti-AGB antibody); type: cell-based; set-up: these two cell types express TRPV4 channels in the mouse retina; from tissue; host or cells: mouse retina; details: mouse retina
# Procedure: FIG. 16 illustrates the effect of the TRPV4 agonist GSK on cation influx into mouse retinal cells of the mouse retina. The influx was determined using the anti-AGB antibody, as described by Marc RE (J Comp Neurol 407(1): 47-64, 1999). AGB is a membrane permeant cation that can flow through most known cation channels. Using an anti-AGB antibody, it can be determined where the cation flux occurs and, therefore, which cells are activated.
# T1 sequence (Q9EPK8 whole entry): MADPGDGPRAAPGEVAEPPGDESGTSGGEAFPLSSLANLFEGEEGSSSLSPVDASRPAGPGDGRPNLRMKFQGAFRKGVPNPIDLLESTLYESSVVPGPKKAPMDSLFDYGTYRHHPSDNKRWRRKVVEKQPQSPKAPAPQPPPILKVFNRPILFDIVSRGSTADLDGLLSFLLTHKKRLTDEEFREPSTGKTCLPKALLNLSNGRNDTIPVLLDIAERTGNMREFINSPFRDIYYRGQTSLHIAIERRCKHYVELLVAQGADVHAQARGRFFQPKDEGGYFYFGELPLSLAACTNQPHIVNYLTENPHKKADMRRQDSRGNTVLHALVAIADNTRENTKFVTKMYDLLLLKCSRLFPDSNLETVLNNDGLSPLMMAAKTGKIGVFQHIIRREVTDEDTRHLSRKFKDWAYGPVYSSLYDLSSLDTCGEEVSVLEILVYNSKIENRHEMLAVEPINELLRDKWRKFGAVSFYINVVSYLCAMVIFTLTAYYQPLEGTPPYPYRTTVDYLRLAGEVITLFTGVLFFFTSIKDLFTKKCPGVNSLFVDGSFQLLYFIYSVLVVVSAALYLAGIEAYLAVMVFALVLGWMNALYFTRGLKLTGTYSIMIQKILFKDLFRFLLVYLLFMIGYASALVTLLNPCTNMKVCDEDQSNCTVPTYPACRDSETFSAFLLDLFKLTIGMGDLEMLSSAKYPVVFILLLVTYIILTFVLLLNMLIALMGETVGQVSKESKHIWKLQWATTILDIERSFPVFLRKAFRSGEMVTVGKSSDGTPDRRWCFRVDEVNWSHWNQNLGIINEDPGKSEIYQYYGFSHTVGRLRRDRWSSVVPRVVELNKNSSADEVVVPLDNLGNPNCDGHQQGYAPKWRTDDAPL
smiles,measurement,setting,value
"Cc1c(C(=O)Nc2cccc(C(F)(F)F)c2)cc(-c2ccccc2)n1CCCN1CCOCC1 [Compound 1, N-(3-(trifluoromethyl)phenyl)-2-methyl-1-(3-morpholinopropyl)-5-phenyl-1H-pyrrole-3-carboxamide]",onset of IOP reduction after dosing,[1],1 h
same,pressure-induced inward currents,[2],reversibly antagonized
same,effect of cell swelling on intracellular calcium levels in ganglion cells,[3]; 140 mOsm saline,blocked
same,pressure-dependent influx of calcium in RGCs (FIG. 17C),[3]; hypotonic solutions,prevents the pressure-dependent influx of calcium in RGCs
same,hypotonic stimuli-induced increase in [Ca++]i (FIG. 18B),[4]; hypotonic stimuli,inhibited
same,cell swelling (change in cell area),[4]; osmolarity lowered from 300 mOsm to 190 mOsm,prevented hypotonic stimuli-mediated cell swelling to the same extent as BAPTA-AM
same,block of arachidonic acid-induced [Ca2+]i increase,[5],blocked
same,block of GSK-induced RGC degeneration,[6],blocked
same,apoptotic cell death (TUNEL) induced by hypotonic swelling,[7]; 190 mOsm saline,block apoptotic cell death
same,apoptotic cell death (TUNEL) induced by the TRPV4 agonist GSK,[7]; GSK 100 nM,block apoptotic cell death
same,block of GSK-evoked [Ca++]i increase,[8],this effect is blocked
same,reversibility of the effect on glial calcium levels,[8],reversible
same,washout by superfusion with control saline,[8],10 min
same,IC50,[9],~300 nM
same,antagonism of the effect of GSK on AGB cation influx,[10],strongly antagonized
